Assay in all cases: NCI-60 cell line screen, 48 h
Experiment [1] relates to UACC-62 melanoma.
The subject of experiment [2] is ACHN renal.
Experiment [3] has as its system HCT-116 colon.
Experiment [4] relates to SF-268 CNS.
For experiment [5], the system named is NCI-H23 lung.
For experiment [6], the system named is COLO 205 colon.
In experiment [7] the test system is NCI/ADR-RES ovarian.
Experiment [8] concerns SK-MEL-5 melanoma.
In experiment [9] the test system is SK-MEL-2 melanoma.
Experiment [10] concerns SF-539 CNS.

Several values for one entry are separate records, joined by “and”; a condition that tells them apart may be missing. Equal entries are not always repeated.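 These data come from cells grown in 96-well plates and exposed to compound for 48 hours at five concentrations. GI50 is the concentration that inhibits growth by half. Definition used: TGI = concentration required for complete inhibition of growth.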

The values below come from PubChem BioAssay (NCI).

As for `COc1ccc2c(c1)nnc1c3cccnc3[nH]c21`, the GI50 was 0.908 µM and 2.11 µM in experiment [1]; 0.231 µM in experiment [2]; 0.209 µM and 0.146 µM in [3]; 0.733 µM and 0.365 µM in experiment [4]; 5.5 µM and 3.04 µM in experiment [5]; 1.13 µM and 0.735 µM in experiment [6]. In addition, the GI50 in experiment [7] is 1.79 µM and 1.92 µM; in experiment [8], 5.85 µM and 4.04 µM; in experiment [9] it was 1.96 µM and 3.6 µM; in experiment [10], 0.642 µM and 0.428 µM. Moreover, the TGI in experiment [1] was 6.93 µM and 12.6 µM; in [2], greater than 100 µM; in [4] it was 4.7 µM and 5.65 µM; in experiment [5], 14.1 µM and 14.9 µM; in [6], 4.87 µM and 2.31 µM; in [7], 12.5 µM and 18.9 µM. For the same compound, the TGI was 12.6 µM and 18.9 µM in [8]; 1.62 µM and 1.87 µM in experiment [10].
For the compound `NS(=O)(=O)c1ccc(N=Nc2c[nH]c(=O)c(O)c2)cc1`, the TGI in experiment [1], in experiment [2], in experiment [3], in experiment [4], in experiment [5] and in [6] was greater than 100 µM throughout. In addition, the TGI in experiment [7], in experiment [8], in [9] and in experiment [10] was greater than 100 µM in each case.
Regarding `Cn1c(I)c(C#C[Si](C)(C)C)c(=O)[nH]c1=O`, the GI50 is 6.4 µM in [1]; 1.61 µM in experiment [2]; 1.89 µM in experiment [3]; 2.79 µM in [4]; 4.25 µM in [5]; 1.87 µM in experiment [6]. The GI50 in experiment [7] was 20.7 µM; in experiment [8], 17.1 µM; in [9] it was 14.4 µM; in experiment [10] it was 9.28 µM. Moreover, the TGI in experiment [1] was 19.8 µM; in experiment [2], 3.01 µM; in [3] it was 3.57 µM; in [4], 8.85 µM; in [5], 17.3 µM; in experiment [6], 3.69 µM. In addition, the TGI in experiment [7] was 42.8 µM; in experiment [8], 31 µM; in experiment [9], 28.3 µM; in [10] it was 21.4 µM.
On to `COC(=O)c1cc(-c2ccc(S(C)(=O)=O)cc2)[nH]c1N/N=C/c1c(Cl)cccc1Cl`, for which the GI50 in experiment [1] is 0.391 µM; in experiment [2] it was 2 µM; in [3], 0.454 µM; in experiment [4], 0.587 µM; in [5], 0.75 µM; in experiment [6], 0.491 µM. Moreover, the GI50 is 0.343 µM in [7], 0.427 µM in experiment [8], 0.765 µM in [9] and 0.496 µM in [10]. The TGI in experiment [1] was greater than 47.9 µM; in experiment [2], greater than 100 µM; in experiment [3] it was greater than 47.9 µM; in experiment [4] it was greater than 56.4 µM; in experiment [5] it was greater than 93.7 µM; in experiment [6], 4.72 µM. Also, the TGI was 11.5 µM in [7], 14.5 µM in experiment [8], greater than 52.9 µM in experiment [9] and 4.79 µM in experiment [10].
With `CSc1nc(SC)c2c(C)cn(COCCOC(=O)c3ccccc3)c2n1`, the TGI in experiment [1], in [2], in [3], in experiment [4], in experiment [5] and in experiment [6] was greater than 100 µM in each case. Also, the TGI in experiment [7], in experiment [8], in [9] and in experiment [10] was greater than 100 µM throughout.
Regarding `CCN1C(=O)N(CC)C2C1N=C(SC)N2/N=C/C=C/c1ccccc1OC` (stereo not given), the GI50 in [1] is 0.492 µM; in experiment [2], 0.724 µM; in experiment [3] it was 0.375 µM; in experiment [4], 0.877 µM; in [5], 0.51 µM; in [6], 0.324 µM. Also, the GI50 in experiment [7] is 0.329 µM; in experiment [8] it was 0.365 µM; in experiment [9], 1.2 µM; in experiment [10], 0.315 µM. In addition, the TGI in [1] was greater than 40.4 µM; in experiment [2], greater than 49.3 µM; in experiment [3], 24.8 µM; in experiment [4], greater than 57.7 µM; in [5], greater than 38.8 µM; in [8], 1.51 µM. For the same compound, the TGI in experiment [9] is greater than 39.3 µM; in experiment [10], 1.69 µM.
`CSc1ccc(C(=O)/C=C/c2ccc(Cl)cc2Cl)cc1`: the GI50 in experiment [1] is 24.3 µM; in experiment [2] it was 23.7 µM; in experiment [3], 3.91 µM; in experiment [4], 20.8 µM; in [5] it was 21.9 µM; in experiment [7], 30 µM. Also, the figures for the GI50 in experiment [8], in [9] and in experiment [10] were 21.9 µM, 17.6 µM and 22 µM, respectively. In addition, the TGI was determined as 78.5 µM in experiment [1]; 55.6 µM in experiment [2]; 14.9 µM in experiment [3]; 48.9 µM in experiment [4]; 57.4 µM in experiment [5]; 94.7 µM in experiment [7]. For the same compound, the TGI was found to be 59 µM in experiment [8], 59.3 µM in experiment [9] and 46.9 µM in [10].
On to `CCOC(=O)/C=C1/SC(=Nc2ccc(C#N)cc2)N(Cc2ccco2)C1=O`, for which the GI50 in experiment [1] was 2.23 µM; in experiment [2], 1.78 µM; in experiment [3], 2.06 µM; in experiment [4] it was 3.38 µM; in [5], 10.6 µM; in [7], 3.42 µM. Besides, the results for the GI50 in [8], in experiment [9] and in experiment [10] were 6.71 µM, 7.65 µM and 3.09 µM, respectively. The TGI worked out at 5.25 µM in [1]; 3.33 µM in experiment [2]; 4.97 µM in [3]; 13.7 µM in [4]; 34.5 µM in [5]; 90.8 µM in [7]. Besides, the TGI came to 20.4 µM in experiment [8], 25.3 µM in experiment [9] and 12.4 µM in experiment [10].
Take `N#Cc1c(N)nc(N2CCOCC2)c(C#N)c1-c1c(Cl)cccc1Cl`: the GI50 in [1] was 3.87 µM; in experiment [2], 13.4 µM; in [3], 3.07 µM; in experiment [4], 11.3 µM; in experiment [6] it was 7.14 µM; in [7] it was 2.34 µM. Besides, the GI50 in [8] is 7.27 µM; in experiment [9], 6.31 µM; in experiment [10] it was 12.2 µM. Further, the TGI was 19.7 µM in experiment [1]; 44.5 µM in experiment [2]; 12.2 µM in [3]; greater than 100 µM in experiment [4]; 22.8 µM in experiment [6]; 7.46 µM in experiment [7]. For the same compound, the TGI was found to be 21 µM in experiment [8], 93.2 µM in experiment [9] and 49.8 µM in [10].
